The conditions of data set [1]: cited from earlier work.
A further data set deals with HSV. The data set can be described thus: Inhibition of HSV infection by acyclovir, dose-response curve. The note with it: drug added at the time of HSV challenge and in the overlay medium; read-out: concentration of acyclovir that inhibits infection by 50% (IC50). The data set is classed as cell-based. As for the experimental part: The concentration of acyclovir that inhibits infection by 50% (IC50) when drug was added at the time of HSV challenge and in the overlay medium was ˜700 ng/mL.
In FIG. 16, panel A (1605), the percentage inhibition of HSV infection was determined in the presence of increasing concentrations of acyclovir (ACV). In panel B (1610) the percentage inhibition of HSV infection was determined in the presence of the indicated CVL sample or control fluid. Results are means from duplicate wells and each participant is represented by a different symbol (1615); the horizontal lines (1620) indicate the medians for the groups. In panel C (1625), the relationship between drug levels and percentage inhibition was determined by the Spearman correlation coefficient. Filled circles (1630) represent CVL samples obtained 24 h after oral VCV dosing, and open circles (1635) are CVL samples obtained 7 days after ring insertion.

The conditions of data set [2]: beyond 190° C.; cited from earlier work.
The conditions of data set [3]: systemic delivery; cited from earlier work.
For data set [4] the following is noted: women, after 7 days of IVR use.
Source text: The trial consisted of an open-label, crossover design where six participants sequentially used a TDF pod-IVR for seven days followed by a TDF-FTC pod-IVR, with a washout period of at least 14 days between each treatment period. Women who were clinically deemed eligible returned to the clinic for IVR insertion visit (Visit 1, TDF IVR; Visit 5, TDF-FTC IVR) after cessation of menses. Women returned for Visit 2 (TDF IVR) or Visit 6 (TDF-FTC IVR) on Day 2 (±1 d) after IVR insertion and for Visit 3 (TDF IVR) or Visit 7 (TDF-FTC IVR) on Day 7 (±1 d) when the IVRs were removed. At Visit 3/7, vaginal biopsies were obtained, and the IVRs were collected. Tissue samples were ultimately reported as ng/mg or fmol/mg, respectively, following normalization to net biopsy or Dacron swab weight.
For data set [5] the following is noted: sheep, in vivo. As for the experimental part:
FIG. 15 illustrates a graph of cervicovaginal lavage concentration (median+SD) of estonogestrel (1510) and ethiny estradiol (1505) delivered simultaneously via combination pod IVRs over 28 days in sheep (n=3). Inverted triangles: estonogestrel; Diamonds: ethiny estradiol.
FIG. 15 illustrates a graph of ETG-EE release: ETG (1510); EE (1505). The pod-in-rings for this example delivered etonogestrel (ETG) and […]. The silicone pod IVRs contained two pods of EE at 16 mg API per pod (32 mg drug per ring) and ETG at 10 mg API per pod (20 mg drug per ring). Median ETG CVL levels (13±6.9 nM) were 8 times higher than the corresponding […] levels (1.6±1.2 nM), in agreement with the relative daily release rates of ETG and EE from the NuvaRing® (120 μg day^−1 and 15 μg day^−1, respectively). Plasma levels were not measured, the preliminary results should imply a match for in vivo and in vitro release compared to Nuvaring®.

The structures appear in SMILES notation. Values after ≈ are worked out from the molar mass of the structure shown. Like-named read-outs stand apart in the source and are kept apart here.

In the case of `C#C[C@]1(O)CC[C@H]2[C@@H]3CCc4cc(O)ccc4[C@H]3CC[C@@]21C` [EE, Ethinyl Estradiol], in data set [1], the solubility in water result is given as “highly hydrophobic”. `Nc1nc2c(ncn2COCCO)c(=O)[nH]1` [acyclovir]: in the data set with HSV, the IC50 is around 0.7 µg/mL (≈ 3.11 µM). Besides, the solubility in water result in data set [1] is recorded as “extremely water soluble”. Besides, in data set [2], the thermal stability entry was “higher thermal stability even beyond 190 °C”. On to `Cc1nc(N(C)C(=O)Cc2ccc(-c3ccccn3)cc2)sc1S(N)(=O)=O` [Pritelivir], for which the solubility in water result is listed as “insoluble in water” in data set [1] and “low solubility” in data set [1] (listed as pritelivir). The “toxicity when delivered systemically” value in data set [3] is “significant toxicity”. On to `CCNC(=O)[C@@H]1CCCN1C(=O)[C@H](CCCNC(=N)N)NC(=O)[C@H](CC(C)C)NC(=O)[C@@H](CC(C)C)NC(=O)[C@H](Cc1ccc(O)cc1)NC(=O)[C@H](CO)NC(=O)[C@H](Cc1c[nH]c2ccccc12)NC(=O)[C@H](Cc1c[nH]cn1)NC(=O)[C@@H]1CCC(=O)N1` [leuprolide], for which, in data set [2], the thermal stability result is “not heat-stable beyond 190 °C”. With `C[C@@H](O)[C@@H]1NC(=O)[C@H](CCCCN)NC(=O)[C@@H](Cc2c[nH]c3ccccc23)NC(=O)[C@H](Cc2ccccc2)NC(=O)[C@@H](NC(=O)[C@H](N)Cc2ccccc2)CSSC[C@@H](C(=O)N[C@H](CO)[C@@H](C)O)NC1=O` [octreotide], the solubility in water entry in data set [1] is listed as “very soluble”. Regarding `CC(Cn1cnc2c(N)ncnc21)OCP(=O)(O)OP(=O)(O)OP(=O)(O)O` (stereo in doubt) [TFV-DP, Tenofovir diphosphate], the “vaginal biopsy homogenate tissue levels” value in data set [4] is recorded as “high enough for PrEP action”.

For the compound `Nc1nc(=O)n([C@@H]2CS[C@H](CO)O2)cc1F` [FTC, Emtricitabine], the “vaginal biopsy homogenate tissue levels” value in data set [4] is reported as “high enough for PrEP action”. `C#C[C@]1(O)CC[C@H]2[C@@H]3CCC4=CC(=O)CC[C@@H]4[C@H]3C(=C)C[C@@]21CC` [ETG, Etonogestrel]: in data set [5], the “ETG CVL levels relative to estradiol (E2) levels” value was determined as 8 times. Also, the solubility in water result in data set [1] is on record as “highly hydrophobic”.

The values are drawn from patent publication US20200038641A1, “DRUG DELIVERY DEVICE WITH REMOVABLE PODS AND RELATED PODS, METHODS AND SYSTEMS” (priority 2017, published 2020).
